22 compounds from PMC12073785, “Design, Synthesis and Biological Evaluation of 3-Hydrazonoindolin-2-one Derivatives as Novel HIV-1 RNase H Inhibitors” (Molecules, 2025) can be followed below.

For series [1], the target named is T1, HIV-1 RT-associated RNase H (Human immunodeficiency virus type 1 group M subtype B, UniProt P04585).
T1 construct: HIV-1 group M subtype B heterodimeric reverse transcriptase (RT) was expressed and purified; made in house; host or cells: Escherichia coli strain M15, p6HRT-Prot expression vector
The experiment in a line: HIV-1 RT-associated RNase H inhibition (fluorescent RNA/DNA hybrid). Format: biochemical. Conditions: for IC50: HIV-1 RT wt, average of three independent determinations, read-out: IC50, concentration required to inhibit 50% of in vitro RNase H activity. The method, then:
The tested compounds were initially dissolved in dimethyl sulfoxide (DMSO) at a concentration of 50 mM and subsequently serially diluted (ratio 1:3). The compounds were tested as previously described.
Briefly, a reaction mixture containing 50 mM Tris-HCl buffer pH 7.8, 6 mM MgCl2, 1 mM dithiothreitol (DTT), 80 mM KCl, 0.25 μM hybrid RNA/DNA. 25 μM of RNA/DNA hybrid 5′-GAUCUGAGCCUGGAGCU-Fluorescin-3′ (HPLC, dry, QC: Mass Check), 5′-Dabcyl-AGCTCCCAGGCTCAGATC-3′ (HPLC, dry, QC: Mass Check), and increasing concentrations of inhibitors was diluted in DMSO. The activity of the RNase H function associated with HIV-1 RT was quantified by measuring the linear portion of the dose–response curve. The reaction mixture was incubated at 37 °C for 10 min with a Victor Nivo 5 multilabel plate reader (model 1420-051, PerkinElmer, Waltham, MA, USA), and fluorescence signals were recorded at excitation/emission wavelengths of 490/528 nm. Based on the obtained fluorescence data, the inhibitory concentration 50 (IC50) of the target compounds was calculated by interpolation on a dose–response curve. Results are reported as average and standard deviation of at least two independent replicates in triplicate.

Another series deals with HIV-1 (strain IIIB). The experiment in a line: Anti-HIV-1 (strain IIIB) activity in MT-4 cells, MTT assay. Format: cell-based. On the procedure: (§1) The anti-HIV-1 (strain IIIB) activity evaluation in MT-4 cells was conducted using an optimized MTT assay. The cell lines were obtained from the laboratory (Prof. Erik De Clercq, Rega Institute for Medical Research, KU Leuven, Herestraat 49, Leuven, Belgium). Compounds were serially diluted (5-fold increments, starting from 10× concentration) and dispensed into 96-well plates (25 µL/well) via an automated Biomek 3000 workstation (Beckman Instruments, Fullerton, CA, USA). Parallel experimental groups included virus-infected (50 µL HIV inoculum, 100–300 TCID50) and mock-infected controls (50 µL culture medium). MT-4 cells were centrifuged (220× g, 5 min), resuspended to 6 × 10⁵ cells/mL, and seeded (50 µL/well). After a 5-day incubation, cell viability was quantified by measuring mitochondrial dehydrogenase-mediated MTT-to-formazan conversion using dual-wavelength spectrophotometry (540 nm primary, 690 nm reference). The 50% cytotoxic concentration (CC50) was calculated from triplicate median absorbance values, representing the compound concentration reducing mock-infected cell viability by 50%.
A general note: Tetrazolium dyes change colour on reduction, which living cells bring about.

The nature of series [2]: Cytotoxicity in mock-infected MT-4 cells, MTT assay. In kind it is cell-based. Conditions: human, mock-infected MT-4 cells; reduction of normal uninfected MT-4 cell viability by 50%. On the procedure: as §1

Take `O=C1Nc2cc(F)c(F)cc2C1=NNc1cc(=O)[nH]c(=O)[nH]1` [Compound 6s, 6-(2-(5,6-Difluoro-2-oxoindolin-3-ylidene)hydrazineyl)pyrimidine-2,4(1H,3H)-dione]: the IC50 in series [1] was determined as 64.9 ± 0.77 µM. Regarding `O=C1Nc2ccc(OC(F)(F)F)cc2C1=NNc1cc(=O)[nH]c(=O)[nH]1` [Compound 6f, 6-(2-(2-Oxo-5-(trifluoromethoxy)indolin-3-ylidene)hydrazineyl)pyrimidine-2,4(1H,3H)-dione], in series [1], the IC50 was determined as 8.94 ± 1.43 µM. On to `COc1ccc2c(c1)C(=NNc1cc(=O)[nH]c(=O)[nH]1)C(=O)N2` [Compound 6p, 6-(2-(5-Methoxy-2-oxoindolin-3-ylidene)hydrazineyl)pyrimidine-2,4(1H,3H)-dione], for which the IC50 in series [1] is over 100 µM. Regarding `O=C1Nc2ccc(Cl)cc2C1=NNc1cc(=O)[nH]c(=O)[nH]1` [Compound 6c, 6-(2-(5-Chloro-2-oxoindolin-3-ylidene)hydrazineyl)pyrimidine-2,4(1H,3H)-dione], the IC50 in series [1] amounted to 58.8 ± 2.4 µM. `Cc1cccc2c1NC(=O)C2=NNc1cc(=O)[nH]c(=O)[nH]1` [Compound 6n, 6-(2-(7-Methyl-2-oxoindolin-3-ylidene)hydrazineyl)pyrimidine-2,4(1H,3H)-dione]: in series [1], the IC50 is 25.5 ± 1.37 µM.

Broadly, the EC50 is the concentration at which the effect is half-maximal. For orientation: CC50 means the concentration at which the toxic effect on the cells reaches its halfway point. As for `O=C1Nc2cc(Br)c(Br)cc2C1=NNc1c[nH]c(=O)[nH]c1=O` [Compound 11b, 5-(2-(5,6-Dibromo-2-oxoindolin-3-ylidene)hydrazineyl)pyrimidine-2,4(1H,3H)-dione], the IC50 in series [1] was found to be 2.2 ± 0.2 µM. Also, the “Fold increase in RNase H inhibitory potency compared to compound 6a” value in series [1] (IC50 ratio versus 6a) turned out to be 40 fold. For the same compound, the “Fold increase in RNase H inhibitory potency compared to compound 6t” value in series [1] (IC50 ratio versus 6t) is recorded as 4 fold. Moreover, a half-maximal effect in the series with HIV-1 (strain IIIB) (Human immunodeficiency virus 1, IIIB, MT4, protection of MT-4 cells against HIV-induced cytopathogenicity by 50%) (EC50) was put at 44.9 µM. Also, the “SI, selectivity index” value in the series with HIV-1 (strain IIIB) (ratio CC50/EC50, MT-4 cells) was 8. Besides, the CC50 at 5 days in series [2] came to 349 µM. For `COc1cccc2c1NC(=O)C2=NNc1cc(=O)[nH]c(=O)[nH]1` [Compound 6r, 6-(2-(7-Methoxy-2-oxoindolin-3-ylidene)hydrazineyl)pyrimidine-2,4(1H,3H)-dione], in series [1], the IC50 was over 100 µM. On to `O=C1Nc2ccc(Br)cc2C1=NNc1cc(=O)[nH]c(=O)[nH]1` [Compound 6d, 6-(2-(5-Bromo-2-oxoindolin-3-ylidene)hydrazineyl)pyrimidine-2,4(1H,3H)-dione], for which the IC50 in series [1] is over 100 µM. Take `COc1ccc2c(c1)NC(=O)C2=NNc1cc(=O)[nH]c(=O)[nH]1` [Compound 6q, 6-(2-(6-Methoxy-2-oxoindolin-3-ylidene)hydrazineyl)pyrimidine-2,4(1H,3H)-dione]: in series [1], the IC50 is over 100 µM.

For the compound `O=C1Nc2ccccc2C1=NNc1cc(=O)[nH]c(=O)[nH]1` [Compound 6b, 6-(2-(2-Oxoindolin-3-ylidene)hydrazineyl)pyrimidine-2,4(1H,3H)-dione], the IC50 in series [1] was over 100 µM. For `O=C1Nc2c(cccc2C(F)(F)F)C1=NNc1cc(=O)[nH]c(=O)[nH]1` [Compound 6o, 6-(2-(2-Oxo-7-(trifluoromethyl)indolin-3-ylidene)hydrazineyl)pyrimidine-2,4(1H,3H)-dione], the IC50 in series [1] turned out to be 24.1 ± 7.02 µM.

`O=C1Nc2cc(Br)c(Br)cc2C1=NNc1cc(=O)[nH]c(=O)[nH]1` [Compound 6u, 6-(2-(5,6-Dibromo-2-oxoindolin-3-ylidene)hydrazineyl)pyrimidine-2,4(1H,3H)-dione]: the IC50 in series [1] stood at 11.8 ± 0.81 µM. For `O=C1Nc2cc(Cl)ccc2C1=NNc1cc(=O)[nH]c(=O)[nH]1` [Compound 6h, 6-(2-(6-Chloro-2-oxoindolin-3-ylidene)hydrazineyl)pyrimidine-2,4(1H,3H)-dione], in series [1], the IC50 is over 100 µM. On to `O=C1Nc2c(Cl)cccc2C1=NNc1cc(=O)[nH]c(=O)[nH]1` [Compound 6l, 6-(2-(7-Chloro-2-oxoindolin-3-ylidene)hydrazineyl)pyrimidine-2,4(1H,3H)-dione], for which the IC50 in series [1] came out at 46.6 ± 3.25 µM. Turning to `O=C1Nc2cc(OC(F)(F)F)ccc2C1=NNc1cc(=O)[nH]c(=O)[nH]1` [Compound 6j, 6-(2-(2-Oxo-6-(trifluoromethoxy)indolin-3-ylidene)hydrazineyl)pyrimidine-2,4(1H,3H)-dione], the IC50 in series [1] stood at 15.28 ± 0.01 µM. As for `Cc1ccc2c(c1)C(=NNc1cc(=O)[nH]c(=O)[nH]1)C(=O)N2` [Compound 6e, 6-(2-(5-Methyl-2-oxoindolin-3-ylidene)hydrazineyl)pyrimidine-2,4(1H,3H)-dione], the IC50 in series [1] was over 100 µM. For `O=C1Nc2c(Br)cccc2C1=NNc1cc(=O)[nH]c(=O)[nH]1` [Compound 6m, 6-(2-(7-Bromo-2-oxoindolin-3-ylidene)hydrazineyl)pyrimidine-2,4(1H,3H)-dione], the IC50 in series [1] was 43.8 ± 7.92 µM. The same measure, in the same setting: the result for `O=C1Nc2ccc(F)cc2C1=NNc1cc(=O)[nH]c(=O)[nH]1` [Compound 6a, 6-(2-(5-Fluoro-2-oxoindolin-3-ylidene)hydrazineyl)pyrimidine-2,4(1H,3H)-dione] reads 81.2 ± 11.4 µM; that for `Cc1cc(C)c2c(c1)C(=NNc1cc(=O)[nH]c(=O)[nH]1)C(=O)N2` [Compound 6v, 6-(2-(5,7-Dimethyl-2-oxoindolin-3-ylidene)hydrazineyl)pyrimidine-2,4(1H,3H)-dione], 23.6 ± 3.89 µM; that for `O=C1Nc2c(F)cccc2C1=NNc1cc(=O)[nH]c(=O)[nH]1` [Compound 6k, 6-(2-(7-Fluoro-2-oxoindolin-3-ylidene)hydrazineyl)pyrimidine-2,4(1H,3H)-dione], over 100 µM.

As to `O=C1Nc2cc(F)ccc2C1=NNc1cc(=O)[nH]c(=O)[nH]1` [Compound 6g, 6-(2-(6-Fluoro-2-oxoindolin-3-ylidene)hydrazineyl)pyrimidine-2,4(1H,3H)-dione], in series [1], the IC50 was 56.8 ± 15.9 µM. With `O=C1Nc2cc(Br)ccc2C1=NNc1cc(=O)[nH]c(=O)[nH]1` [Compound 6i, 6-(2-(6-Bromo-2-oxoindolin-3-ylidene)hydrazineyl)pyrimidine-2,4(1H,3H)-dione], in series [1], the IC50 was 23.6 ± 1.11 µM.
